Results published in publication PMC10508830 (Antiviral research, 2023).

Biological target: NA of clade 2.3.4.4b A(H5N1) viruses lacking the flagged NA substitutions (n = 15) (Influenza A virus, UniProt Q9Q0U7)
Type: biochemical
Conditions: read-out: Median IC50 A(H5N1)

Chain of NA of clade 2.3.4.4b A(H5N1) viruses lacking the flagged NA substitutions (n = 15) (Q9Q0U7 whole entry, looked up): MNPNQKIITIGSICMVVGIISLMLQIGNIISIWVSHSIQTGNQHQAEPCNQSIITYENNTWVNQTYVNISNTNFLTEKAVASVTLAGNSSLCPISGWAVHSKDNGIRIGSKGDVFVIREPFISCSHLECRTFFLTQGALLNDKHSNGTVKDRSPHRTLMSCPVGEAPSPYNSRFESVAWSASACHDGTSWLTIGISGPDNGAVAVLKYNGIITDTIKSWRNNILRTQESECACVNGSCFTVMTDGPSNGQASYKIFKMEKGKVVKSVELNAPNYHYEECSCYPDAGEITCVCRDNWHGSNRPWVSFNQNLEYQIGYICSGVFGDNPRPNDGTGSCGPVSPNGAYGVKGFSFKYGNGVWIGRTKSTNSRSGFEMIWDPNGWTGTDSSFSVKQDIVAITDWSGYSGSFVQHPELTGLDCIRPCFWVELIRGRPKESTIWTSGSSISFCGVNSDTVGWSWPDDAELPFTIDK

Question: How did the IC50 turn out when peramivir was run?
Answer: The IC50 was 0.1 nM.
